Columns and labels:
[1] = Chemical stability in 0.1 N HCl at pH 1.2 assessed as parent compound remaining incubated for 24 hrs by LC-MS method; format: physicochemical; details: buffer, pH 1.2, 24 h
[2] = target: Casein kinase I isoform gamma-1 (Homo sapiens) (UniProt Q9HCP0); experiment: Inhibition of human CK1g1 at 10 uM by ADP-Glo kinase assay
[3] = target: T1, Calmodulin-sensitive adenylate cyclase (Bacillus anthracis) (UniProt P40136); experiment: Inactivation of Bacillus anthracis edema factor assessed as Kinact/Ki ratio in presence of CaM incubated for 10 to 240 mins by EnzChek pyrophosphate assay
T1 sequence (whole entry): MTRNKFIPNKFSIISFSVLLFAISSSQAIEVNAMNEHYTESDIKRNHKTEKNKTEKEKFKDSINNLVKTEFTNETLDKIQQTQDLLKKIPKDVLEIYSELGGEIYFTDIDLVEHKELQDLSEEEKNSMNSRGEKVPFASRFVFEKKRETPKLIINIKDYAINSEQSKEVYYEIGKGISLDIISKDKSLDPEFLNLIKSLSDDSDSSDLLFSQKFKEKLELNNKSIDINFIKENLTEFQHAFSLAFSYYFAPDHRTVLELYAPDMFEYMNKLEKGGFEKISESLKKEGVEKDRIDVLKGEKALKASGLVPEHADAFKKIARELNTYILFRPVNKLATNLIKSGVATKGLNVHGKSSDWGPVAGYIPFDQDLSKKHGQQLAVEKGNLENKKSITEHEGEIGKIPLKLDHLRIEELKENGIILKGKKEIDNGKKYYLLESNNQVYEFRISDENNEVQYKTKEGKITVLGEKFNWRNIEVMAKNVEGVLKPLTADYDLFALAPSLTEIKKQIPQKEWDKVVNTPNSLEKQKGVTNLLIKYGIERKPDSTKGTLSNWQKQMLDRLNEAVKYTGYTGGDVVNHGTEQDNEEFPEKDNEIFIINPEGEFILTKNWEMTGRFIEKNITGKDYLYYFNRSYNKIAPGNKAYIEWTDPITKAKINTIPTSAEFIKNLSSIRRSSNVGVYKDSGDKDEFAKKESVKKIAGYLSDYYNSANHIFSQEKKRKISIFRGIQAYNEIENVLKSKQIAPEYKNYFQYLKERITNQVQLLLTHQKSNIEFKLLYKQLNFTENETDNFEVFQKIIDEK

[4] = target: T2, Calmodulin-sensitive adenylate cyclase (Bacillus anthracis, UniProt P40136); experiment: Inactivation of Bacillus anthracis edema factor in presence of CaM incubated for 10 to 240 mins by EnzChek pyrophosphate assay
T2 sequence (P40136 whole entry): T1 sequence (whole entry)

[5] = Chemical stability in simulated gastric intestinal fluid at pH 1.7 assessed as parent compound remaining incubated for 24 hrs by LC-MS method; format: ADME, physicochemical; details: simulated gi fluid, pH 1.7, 24 h
[6] = Chemical stability in 0.1 M sodium tetraborate (Na2B4O7, pH 10.0) assessed as parent compound remaining incubated for 24 hrs by LC-MS method; format: physicochemical; details: 0.1 M sodium tetraborate buffer, read-out: Stability
[7] = target: T3, Inhibitor of nuclear factor kappa-B kinase subunit beta (Homo sapiens) (UniProt O14920); experiment: Inhibition of human IKKbeta at 10 uM by ADP-Glo kinase assay
T3 sequence (whole entry): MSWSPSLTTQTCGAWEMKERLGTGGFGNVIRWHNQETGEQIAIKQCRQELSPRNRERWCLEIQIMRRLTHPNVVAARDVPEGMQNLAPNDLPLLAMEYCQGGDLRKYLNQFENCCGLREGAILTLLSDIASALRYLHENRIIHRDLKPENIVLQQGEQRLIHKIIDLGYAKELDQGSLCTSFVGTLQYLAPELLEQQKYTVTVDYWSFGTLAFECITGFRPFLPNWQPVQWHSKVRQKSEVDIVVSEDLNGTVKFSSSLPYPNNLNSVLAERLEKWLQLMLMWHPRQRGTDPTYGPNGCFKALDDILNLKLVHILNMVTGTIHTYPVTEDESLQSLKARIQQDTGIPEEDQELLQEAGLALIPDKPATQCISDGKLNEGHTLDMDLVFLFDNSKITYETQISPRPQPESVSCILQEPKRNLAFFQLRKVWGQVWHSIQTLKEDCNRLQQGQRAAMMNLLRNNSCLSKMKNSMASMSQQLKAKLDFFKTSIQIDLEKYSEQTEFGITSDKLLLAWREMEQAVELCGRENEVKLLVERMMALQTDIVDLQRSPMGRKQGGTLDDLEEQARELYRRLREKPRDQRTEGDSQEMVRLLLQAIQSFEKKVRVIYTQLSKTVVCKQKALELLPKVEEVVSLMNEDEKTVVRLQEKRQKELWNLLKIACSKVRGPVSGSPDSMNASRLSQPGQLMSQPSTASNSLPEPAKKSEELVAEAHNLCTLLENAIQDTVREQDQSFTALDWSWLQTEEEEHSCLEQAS

[8] = Drug metabolism in 0.1 M sodium tetraborate (Na2B4O7, pH 10.0) assessed as fluoro-sulphonyl group hydrolysis incubated for 24 hrs by LC-MS method; format: physicochemical; details: pH 10, 24 h
[9] = Stability in C57BL/6 mouse plasma assessed as half life at 10 uM by LC-MS method; format: ADME, cell-free, C57B/6
[10] = target: Casein kinase II subunit alpha (Homo sapiens) (UniProt P68400); experiment: Inhibition of human CK2a1 at 10 uM by ADP-Glo kinase assay
Casein kinase II subunit alpha (Homo sapiens), sequence (P68400 whole entry, looked up): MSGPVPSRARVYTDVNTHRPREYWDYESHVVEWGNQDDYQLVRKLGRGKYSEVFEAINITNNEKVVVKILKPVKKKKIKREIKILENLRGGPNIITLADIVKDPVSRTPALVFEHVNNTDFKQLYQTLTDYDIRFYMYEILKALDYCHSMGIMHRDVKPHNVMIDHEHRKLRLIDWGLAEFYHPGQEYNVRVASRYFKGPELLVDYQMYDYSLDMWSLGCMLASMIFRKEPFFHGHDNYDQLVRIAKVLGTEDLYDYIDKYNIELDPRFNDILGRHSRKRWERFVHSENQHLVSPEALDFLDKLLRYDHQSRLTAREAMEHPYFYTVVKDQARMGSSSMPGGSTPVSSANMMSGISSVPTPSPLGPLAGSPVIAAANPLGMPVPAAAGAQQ

[11] = Chemical stability in 0.1 M K2PO4 at pH 7.4 assessed as parent compound remaining incubated for 24 hrs by LC-MS method; format: physicochemical; details: buffer, pH 7.4, 24 h
RAW264.7 = experiment: Cytotoxicity against mouse RAW264.7 cells assessed a reduction in cell viability incubated for 24 hrs in absence of 10% FBS by MTT assay; format: cell-based; details: raw264.7, 24 h
[12] = Stability in C57BL/6 mouse plasma assessed as assessed as parent compound remaining at 10 uM by LC-MS method; format: ADME, cell-free, C57B/6; details: read-out: Stability
[13] = target: Death-associated protein kinase 1 (Homo sapiens) (UniProt P53355); experiment: Inhibition of human DAPK1 at 10 uM by ADP-Glo kinase assay
Death-associated protein kinase 1 (Homo sapiens), sequence (P53355 whole entry, looked up): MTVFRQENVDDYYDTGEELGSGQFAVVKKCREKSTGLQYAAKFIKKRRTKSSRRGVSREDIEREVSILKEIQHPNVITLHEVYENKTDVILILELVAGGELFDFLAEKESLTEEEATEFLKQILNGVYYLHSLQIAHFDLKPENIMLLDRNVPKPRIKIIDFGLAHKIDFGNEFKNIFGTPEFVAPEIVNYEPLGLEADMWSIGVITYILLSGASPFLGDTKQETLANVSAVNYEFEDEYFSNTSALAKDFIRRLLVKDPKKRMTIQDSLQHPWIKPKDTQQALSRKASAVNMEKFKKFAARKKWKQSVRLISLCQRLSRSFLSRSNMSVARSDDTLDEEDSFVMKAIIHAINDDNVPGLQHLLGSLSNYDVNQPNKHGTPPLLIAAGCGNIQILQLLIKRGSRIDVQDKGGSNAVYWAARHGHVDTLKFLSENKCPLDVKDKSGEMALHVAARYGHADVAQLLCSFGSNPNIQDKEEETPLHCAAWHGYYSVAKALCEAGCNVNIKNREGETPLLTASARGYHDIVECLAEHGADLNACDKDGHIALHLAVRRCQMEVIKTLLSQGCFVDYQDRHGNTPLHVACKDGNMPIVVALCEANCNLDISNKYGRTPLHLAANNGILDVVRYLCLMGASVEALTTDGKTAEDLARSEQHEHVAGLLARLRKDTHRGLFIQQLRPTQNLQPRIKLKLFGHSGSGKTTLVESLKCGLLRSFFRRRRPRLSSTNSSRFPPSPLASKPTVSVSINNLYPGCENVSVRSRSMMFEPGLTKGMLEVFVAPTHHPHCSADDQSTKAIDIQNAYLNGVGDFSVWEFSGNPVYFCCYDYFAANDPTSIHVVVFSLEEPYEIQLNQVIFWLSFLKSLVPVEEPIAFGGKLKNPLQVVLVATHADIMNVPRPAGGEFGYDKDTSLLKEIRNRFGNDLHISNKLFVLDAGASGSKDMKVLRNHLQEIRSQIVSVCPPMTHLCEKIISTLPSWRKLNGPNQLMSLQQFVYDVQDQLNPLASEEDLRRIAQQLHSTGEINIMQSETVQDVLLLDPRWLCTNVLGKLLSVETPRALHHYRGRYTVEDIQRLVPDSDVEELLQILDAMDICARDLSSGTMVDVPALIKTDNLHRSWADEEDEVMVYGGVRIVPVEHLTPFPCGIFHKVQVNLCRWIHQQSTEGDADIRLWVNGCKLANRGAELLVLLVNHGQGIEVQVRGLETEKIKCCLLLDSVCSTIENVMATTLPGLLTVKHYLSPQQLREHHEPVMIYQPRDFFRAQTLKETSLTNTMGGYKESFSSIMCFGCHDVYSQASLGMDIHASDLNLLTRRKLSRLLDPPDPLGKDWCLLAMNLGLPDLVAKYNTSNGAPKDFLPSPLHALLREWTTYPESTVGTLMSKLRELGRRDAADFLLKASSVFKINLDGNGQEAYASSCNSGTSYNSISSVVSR

Casein kinase I isoform gamma-1 (Homo sapiens), sequence (Q9HCP0 whole entry, looked up, canonical isoform): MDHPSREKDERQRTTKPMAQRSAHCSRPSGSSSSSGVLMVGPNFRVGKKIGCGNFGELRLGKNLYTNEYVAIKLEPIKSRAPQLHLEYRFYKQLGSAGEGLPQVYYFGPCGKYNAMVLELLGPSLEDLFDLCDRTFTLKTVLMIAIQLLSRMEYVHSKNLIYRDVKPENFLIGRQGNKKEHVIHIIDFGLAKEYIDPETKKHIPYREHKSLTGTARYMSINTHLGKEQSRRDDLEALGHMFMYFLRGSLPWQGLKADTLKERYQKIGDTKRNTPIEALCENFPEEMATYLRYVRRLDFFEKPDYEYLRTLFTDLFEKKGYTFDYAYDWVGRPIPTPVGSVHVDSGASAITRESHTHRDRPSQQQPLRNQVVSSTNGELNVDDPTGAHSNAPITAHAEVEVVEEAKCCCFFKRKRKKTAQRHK

Compound	Stability [1]	inhibition [2]	Ratio [3]	Ki [4]	Stability [5]	remaining at 24 h [6]	inhibition [7]	Drug metabolism [8]	half-life at 10 µM [9]	inhibition [10]	Stability [11]	Activity (RAW264.7)	remaining at 10 µM [12]	inhibition [13]
Nc1ncnc2c1ccn2C1CCN(C(=O)c2ccc(S(=O)(=O)F)cc2)CC1	Stable	23%	14200	300 nM	Stable	< 1%	0%	Metabolite_Notdetected	37.2 min	9%	Stable	Non-Toxic	< 5%	4%
Cc1nc(N)c2ccn(C3CCN(C(=O)c4ccc(S(=O)(=O)F)cc4)CC3)c2n1	–	16%	3140	700 nM	–	–	0%	–	–	16%	–	Non-Toxic	–	13%

Reference: ChEMBL document CHEMBL4177722, “Small molecule inhibitors of anthrax edema factor” (Bioorg Med Chem Lett, 2018)
